Laboratory results reported in US8354274B2, “Synthetic surfaces for culturing cells in chemically defined media” (Geron Corporation, priority 2008, dated 2013).
Bridges are numbered along the chain shown (N, C = ends). Where no end group is shown, it is not given here.

Legend:
[1] = system: HT-1080 human fibrosarcoma cells; test: HT-1080 cell adhesion assay (crystal violet, absorbance at 570 nm); format: cell-based; settings: for HT-1080 adhesion compared with linear BSP (SEQ ID NO:4)-conjugated (meth)acrylate: cyclic peptide conjugated to Formulation SA1, normalized to fibronectin (FN, 5 mg/mL)-coated surfaces
Excerpt: To evaluate ability of a polypeptide conjugated to embodiments of swellable (meth)acrylate using these conjugation methods to enable cell adhesion and proliferation, peptides Ac-LysTyrGlyArgLysArgLeuGlnValGlnLeuS erIleArgThr-NH2 (SE Q ID NO:22) (AG-73, an adhesive peptide) and Ac-GlyArgGlyGluSerProIleTyrLys-NH2 (SEQ ID NO:30) (RGE, a negative control) were conjugated to swellable (meth)acrylate (as described above) and adhesion of HT-1080 human fibrosarcoma cells to the swellable (meth)acrylate was evaluated. Briefly, Laminin (5 μg/mL, Sigma-Aldrich) control wells were coated for 1 hour at room temperature. All wells were blocked with 1% bovine serum albumin (BSA) in phosphate buffered saline (PBS) for 1 hour at 37° C. Wells were washed briefly with PBS before incubation with 0.1% BSA in Iscove's Modified Dulbecco's Medium (IMDM) prior to cell seeding. HT-1080 human fibrosarcoma cells (ATCC number: CCL-121) were grown in IMDM (Lonza) with 10% FBS (Lonza) to 90% confluency at standard cell culture conditions. Cells were trypsinized and allowed to recover in IMDM with 10% FBS for 30 minutes at 37° C., 5% CO2. After recovery, cells were washed and resuspended in 0.1% BSA in IMDM and seeded on peptide-conjugated plates at a density of 30,000 cells/well. Cell adhesion was allowed to take place for 1 hour at standard cell culture conditions. The media was aspirated from the wells and adherent cells were fixed and stained in 50 μL of 0.2% crystal violet in 20% methanol for 8 minutes at room temperature. Cellular absorption of crystal violet was quantified through addition of 1% SDS in H2O for 5 minutes prior to absorbance measurement at 570 nm. For this assay, after polypeptide conjugation the remaining NHS esters on the swellable (meth)acrylate were reacted with ethanolamine or aminopropyl morpholine to reduce uptake of crystal violet dye by the swellable (meth)acrylate.

H7 hES cells = test: AttoPhos screening (alkaline phosphatase activity) of undifferentiated hES cells in chemically defined medium; format: cell-based, human; settings: for support of culture of undifferentiated stem cells (AttoPhos): peptides conjugated to Formulation SA1 at 10, 100 and 1000 μM input concentration
Protocol: All experimental plates were sterilized prior to the cell seeding by spraying with 70% ETOH, drying in a laminar hood, and washing five times with 200 μl Dulbecco's Phosphate Buffered Saline (DPBS). H7 hES cells were seeded on peptide conjugated swellable (meth)acrylate (SAP) surfaces at a density of 35,000 cells/well (96-well plate) in 100 μl of chemically defined medium Xvivo10 (Lonza, Cat #04-743Q) and supplemented with 80 ng/ml basic fibroblast growth factor (bFGF) (R&D systems, Cat #234-FSE/CF) and 0.5 ng/ml transforming growth factor-β1 (TGFβ1) (R&D systems, Cat. #240B). MATRIGEL™ (MG)-coated wells were used as positive control for adhesion of undifferentiated hES cells. Cells were cultured for 48 hrs under standard cell culture conditions (37° C. with 5% CO2) and then were fixed and processed for AttoPhos assay to measure alkaline phosphatase activity, which is a known marker for undifferentiated hES cells, and/or BCIP staining as described below.
AttoPhos screening was performed as follows. Briefly, at the end of incubation time, cells were rinsed with 150 μl of DPBS and fixed with 4% paraformaldehyde for 10 min at room temperature (70 μl/well of 96-well plate). The cells were washed once with 150 μl of DPBS, and treated for 10 min with 100 μl of AttoPhos fluorescent substrate for alkaline phosphatase (Promega) (diluted 1:3 in DPBS) protected from light. AttoPhos fluorescent intensity at 485/535 nm was obtained using Victor 3 microplate reader (Perklin Elmer). AttoPhos fluorescent intensity for experimental surfaces was expressed as % of MATRIGEL™ control.

HepG2/C3A cells = test: Serum-free attachment of HepG2/C3A cells (LDH activity, absorbance at 490 nm); format: cell-based; settings: peptide conjugated to SA layer, 24 hours
Protocol: HepG2/C3A cells (ATCC # CRL-10741) were plated at 25,000 cells per well in 100 μl media in triplicate on SAP surfaces, BD BioCoat™ Collagen I and Corning CellBind® treated Topas™ in a 96 well format and cultured at in Eagle's Minimum Essential Medium (ATCC #30-2003) supplemented with 1% penicillin-streptomycin (Invitrogen #15140-155). The culture medium was not supplemented with fetal bovine serum (as recommended by the cell line supplier) nor was the SAP surface exposed to fetal bovine serum. The culture plates were incubated at 37° C., in 5% CO2 and 95% relative humidity for 24 hours. The cell culture plates having the SA surfaces were prepared as described in EXAMPLE 1. Peptides were conjugated according to EXAMPLE 2. […] The line in FIG. 24 indicates 75% performance of cells on Collagen 1.
The attachment of the HepG2/C3A cells was determined using a Cytotoxicity Assay (Promega CytoTox 96® Non-Radioactive Cytotoxicity Assay # G1780) which estimates the number of living cells attached to the culture surfaces. After 24 hours of in culture, the cells were vigorously washed with phosphate buffer, lysed via the introduction of the lysis buffer solution and incubation at 37 C for 1 hour to release lactate dehydrogenase (LDH) enzyme from the viable cells that remain attached to the culture surfaces. The biological activity of the released lactate dehydrogenase enzyme was measured via absorbance at 490 nm using a plate reader (Victor 3 from PerkinElmer).

[2] = peptide conjugated to swellable (meth)acrylate, 1 hour adhesion, OD570 nm normalized to Laminin

For “Ac-GlyArgGlyGluSerProIleTyrLys-NH2 (Ac-GRGESPIYK-NH2) [reference compound]”, the “adhesion of HT-1080 cells” value [1, 2] was “did not adhere”.

“Ac-LysGlyGlyAsnGlyGluProArgGlyAspThrTyrArgAlaTyr-NH2 (Ac-KGGNGEPRGDTYRAY-NH2) [SEQ ID NO:4]” was tested, and the “AttoPhos fluorescence intensity (FI) compared to MATRIGEL control” value (H7 hES cells; SEQ ID NO:4 conjugated to Formulation SA1A using 1000 μM solution, Xvivo10 + bFGF + TGFβ1, 48 hrs) was 56-60%, the “adhesion and growth of undifferentiated stem cells versus peptide concentration (AttoPhos)” value (H7 hES cells; peptide at 1, 10, 100 and 1000 μM, formulation SA1A surfaces) was “peptide concentration dependent” and the “support of culture of undifferentiated stem cells (AttoPhos)” value (H7 hES cells) was “appeared to better support the culture of undifferentiated stem cells”.

“Ac-LysGlyGlyCys^4AsnGlyGluProArgGlyAspThrTyrArgAlaTyrCys^17-NH2 (Ac-KGGCNGEPRGDTYRAYC-NH2; disulfide 4-17; SMILES CC(=O)N[C@@H](CCCCN)C(=O)NCC(=O)NCC(=O)N[C@H]1CSSC[C@@H](C(N)=O)NC(=O)[C@H](Cc2ccc(O)cc2)NC(=O)[C@H](C)NC(=O)[C@H](CCCNC(=N)N)NC(=O)[C@H](Cc2ccc(O)cc2)NC(=O)[C@H]([C@@H](C)O)NC(=O)[C@H](CC(=O)O)NC(=O)CNC(=O)[C@H](CCCNC(=N)N)NC(=O)[C@@H]2CCCN2C(=O)[C@H](CCC(=O)O)NC(=O)CNC(=O)[C@H](CC(N)=O)NC1=O) [SEQ ID NO:8]” was tested, and the “HT-1080 adhesion compared with linear BSP (SEQ ID NO:4)-conjugated (meth)acrylate” value [1] was “supported HT-1080 adhesion similar to”.

“Ac-LysGlyGlyCys^4GluProArgGlyAspThrTyrArgCys^17-NH2 (Ac-KGGCEPRGDTYRC-NH2; disulfide 4-13; SMILES CC(=O)N[C@@H](CCCCN)C(=O)NCC(=O)NCC(=O)N[C@H]1CSSC[C@@H](C(N)=O)NC(=O)[C@H](CCCNC(=N)N)NC(=O)[C@H](Cc2ccc(O)cc2)NC(=O)[C@H]([C@@H](C)O)NC(=O)[C@H](CC(=O)O)NC(=O)CNC(=O)[C@H](CCCNC(=N)N)NC(=O)[C@@H]2CCCN2C(=O)[C@H](CCC(=O)O)NC1=O) [SEQ ID NO:9]” was tested, and the “HT-1080 adhesion compared with linear BSP (SEQ ID NO:4)-conjugated (meth)acrylate” value [1] was “supported HT-1080 adhesion similar to”.

“Ac-LysGlyGlyLys^4AsnGlyGluProArgGlyAspThrTyrArgAlaTyrAsp^17-NH2 (Ac-KGGKNGEPRGDTYRAYD-NH2; lactam 4-17; SMILES CC(=O)N[C@@H](CCCCN)C(=O)NCC(=O)NCC(=O)N[C@H]1CCCCNC(=O)C[C@@H](C(N)=O)NC(=O)[C@H](Cc2ccc(O)cc2)NC(=O)[C@H](C)NC(=O)[C@H](CCCNC(=N)N)NC(=O)[C@H](Cc2ccc(O)cc2)NC(=O)[C@H]([C@@H](C)O)NC(=O)[C@H](CC(=O)O)NC(=O)CNC(=O)[C@H](CCCNC(=N)N)NC(=O)[C@@H]2CCCN2C(=O)[C@H](CCC(=O)O)NC(=O)CNC(=O)[C@H](CC(N)=O)NC1=O) [SEQ ID NO:6]” was tested, and the “HT-1080 adhesion compared with linear BSP (SEQ ID NO:4)-conjugated (meth)acrylate” value [1] was “supported HT-1080 adhesion similarly to linear BSP-conjugated (meth)acrylates”.

With “Ac-LysGlyGlyLys^4GluProArgGlyAspThrTyrArgAsp^13-NH2 (Ac-KGGKEPRGDTYRD-NH2; lactam 4-13; SMILES CC(=O)N[C@@H](CCCCN)C(=O)NCC(=O)NCC(=O)N[C@H]1CCCCNC(=O)C[C@@H](C(N)=O)NC(=O)[C@H](CCCNC(=N)N)NC(=O)[C@H](Cc2ccc(O)cc2)NC(=O)[C@H]([C@@H](C)O)NC(=O)[C@H](CC(=O)O)NC(=O)CNC(=O)[C@H](CCCNC(=N)N)NC(=O)[C@@H]2CCCN2C(=O)[C@H](CCC(=O)O)NC1=O) [SEQ ID NO:7]” the “HT-1080 adhesion compared with linear BSP (SEQ ID NO:4)-conjugated (meth)acrylate” value [1] was “supported HT-1080 adhesion similarly to linear BSP-conjugated (meth)acrylates”.

For “Ac-LysTyrGlyArgLysArgLeuGlnValGlnLeuSerIleArgThr-NH2 (Ac-KYGRKRLQVQLSIRT-NH2) [AG-73]”, the “adhesion of HT-1080 cells” value ([1]; 1 μM peptide solution used for conjugation) was “did not result in cell adhesive surface”, the “adhesion of HT-1080 cells” value ([1]; 10 μM peptide solution used for conjugation) was “resulted in an adhesive surface” and the “adhesion of HT-1080 cells” value ([1]; 100 μM peptide solution used for conjugation) was “resulted in an adhesive surface”. For the same substance, the “adhesion of HT-1080 cells” value [1, 2] was “adhered specifically”.

For “GlyArgGlyAspSerProLys (GRGDSPK; Synthetic polypeptide including sequence derived from human fibronectin) [s-FN]”, the “support of culture of undifferentiated stem cells (AttoPhos)” value (H7 hES cells) was “comparable in performance to the long fibronectin sequence”.

In the case of “KGGGQKCIVQTTSWSQCSKS (cysteine pairing not given here) [SEQ ID NO:13]”, the “serum-free attachment of HepG2/C3A cells compared with CellBind treated Topas” value (HepG2/C3A cells) is reported as “greater than CellBind® treated Topas™”.

In the case of KGGTWYKIAFQRNRK [SEQ ID NO:16], the “attachment of HepG2/C3A cells compared to Collagen I” value (HepG2/C3A cells) is reported as “*CLS 01020 (Polypeptides exhibiting results better than 75% attachment compared to Collagen I (see FIG. 24) are marked with an asterix in Table 6)” and the “serum-free attachment of HepG2/C3A cells compared with CellBind treated Topas” value (HepG2/C3A cells) is reported as “greater than CellBind® treated Topas™”.

With KYGKAFDITYVRLKF [SEQ ID NO:21] the “serum-free attachment of HepG2/C3A cells compared with CellBind treated Topas” value (HepG2/C3A cells) was “greater than CellBind® treated Topas™”.

For KYGSETTVKYIFRLHE [SEQ ID NO:19], the “attachment of HepG2/C3A cells compared to Collagen I” value (HepG2/C3A cells) was “*CLS 01035 (Polypeptides exhibiting results better than 75% attachment compared to Collagen I (see FIG. 24) are marked with an asterix in Table 6)” and the “serum-free attachment of HepG2/C3A cells compared with CellBind treated Topas” value (HepG2/C3A cells) was “greater than CellBind® treated Topas™”.
